# Measurements reported in patent publication EP2712863B1, “Novel inhibitors of bacterial biofilms and related methods” (Sequoia Sciences, Inc., priority 2012, dated 2014).
# Key:
# E. coli = experiment: Biofilm growth assay (spreading biofilm on semi-solid agar); format: cell-based; conditions: Escherichia coli; Table 3; concentration that reduces the area of the spreading biofilm by >= 85%; read-out: E. coli
# Excerpt: (§1) "Biofilm Growth Assay" refers to an assay performed on semi-solid agar surface where the bacteria collectively move out from an inoculation point. To those skilled in the art, the act of bacteria collectively moving out from an inoculation point on a semi-solid surface may be referred to as swarming or a spreading biofilm. (Anderson, et al Microbiology, 2003, 149, 37-46; Daniels, et al. FEMS Microbiology Reviews, 2004, 28, 261-289). The procedure to perform this assay is described in detail in the Examples. This type of surface motility by bacteria has been reported in the literature by those skilled in the art.
# (§2) The biofilm growth assay was carried out to measure swarming or biofilm spreading on semi-solid agar media in round plates (for example, 100 × 15 mm), also referred to as Petri dishes. For E. coli, the plates contained LB medium with 0.6% agar and 0.5% glucose. P. aeruginosa plates were made with M8 agar supplemented with 0.2% glucose, 100 µM CaCl2, 1 mM MgSO4, and 0.5% Casamino acids. The agar plates of this assay consisted of 0.4% to 0.7% agar (Bacto or Noble agar), although other media may also be used as described in the literature and known to those skilled in the art. Test compounds at the desired concentration were added to the cooled, autoclaved media. Portions of the media were then poured into the plates (20 mL/plate), and the plates allowed to dry at room temperature for approximately 3 to 4 hours. Alternatively, however, plates may be dried in a laminar flow hood for approximately fifteen to twenty minutes. Overnight cultures were grown in a 37°C shaker in LB (E. coli) or TSB (P. aeruginosa). Plates were inoculated by placing 5 µL of the appropriate overnight culture in the centers of the plates. The plates then were incubated overnight at 37°C. The area of the zone of spreading bacteria was then measured and replicates are averaged. Percent inhibition was calculated as 100 × (area without compound - area with compound)/(area without compound). An active compound was considered that which reduces the area of the spreading biofilm compared to negative controls by greater than or equal to 85%. The values shown in Table 1 are the concentrations of compounds (µg/ml) tested in the biofilm growth assay that reduce the area of the spreading biofilm compared to negative controls by greater than or equal to 85% unless noted differently in Table 1. A > ("greater than" symbol) as used in Table 1 is well understood to those skilled in the art as an indication that the listed concentration was not effective at this concentration.
# (§3) All of the compounds shown in Tables 2, 3, 4, and 5, below, were prepared semi-synthetically from oleanolic acid, except for Compounds 2 and 3. Compound 2 was prepared from ursolic acid. Compound 3 was prepared from hederagenin, but could also be prepared from an oleanolic acid analog with a hydroxyl at C23 or C24. These compounds were tested in the spreading biofilm assay according to the methods detailed in Example I, above. The values shown in Tables 2, 3, 4, and 5 are the concentrations of compounds tested in the biofilm growth assay that reduce the area of the spreading biofilm compared to negative controls by greater than or equal to 85%. Table 2. Compound 1 and its Analogs and their inhibitory concentrations in the biofilm growth assay as detailed in Example I, above
# P. aeruginosa = experiment: as above; format: cell-based; conditions: Pseudomonas aeruginosa; Table 3; concentration that reduces the area of the spreading biofilm by >= 85%; read-out: P. aeruginosa
# Excerpt: as §1, §2, §3
Compound,IC85 (E. coli) [µg/mL],IC85 (P. aeruginosa) [µg/mL]
"CCC1=C2[C@@H]3CC(C)(C)CC[C@]3(C(=O)O)CC[C@@]2(C)[C@]2(C)CC[C@H]3C(C)(C)c4n[nH]c(N)c4C[C@]3(C)C2C1 (stereo partly drawn) [Compound 14, (4aS,6aS,6bR,8aR,13aR,15bS)-12-Amino-15-ethyl-2,2,6a,6b,9,9,13a-heptamethyl-2,3,4,4a,5,6,6a,6b,7,8,8a,9,11,13,13a,13b,14,15b-octadecahydro-1H-chryseno[1,2-f]indazole-4a-carboxylic acid]",2,0.5
"CC1(C)CC[C@]2(C(=O)O)CC[C@]3(C)C(=C(c4cccc(N)c4)CC4[C@@]5(C)Cc6c(n[nH]c6N)C(C)(C)[C@@H]5CC[C@]43C)[C@@H]2C1 (stereo partly drawn) [Compound 15, (4aS,6aS,6bR,8aR,13aR,15bS)-12-Amino-15-(3-aminophenyl)-2,2,6a,6b,9,9,13a-heptamethyl-2,3,4,4a,5,6,6a,6b,7,8,8a,9,11,13,13a,13b,14,15b-octadecahydro-1H-chryseno[1,2-f]indazole-4a-carboxylic acid]",1,0.25
"CC1(C)CC[C@]2(C(=O)O)CC[C@]3(C)C(=C(c4cccc(O)c4)CC4[C@@]5(C)Cc6c(n[nH]c6N)C(C)(C)C5CC[C@]43C)C2C1 (stereo partly drawn) [Compound 16, (4aS,6aS,6bR,13aR)-12-Amino-15-(3-hydroxyphenyl)-2,2,6a,6b,9,9,13a-heptamethyl-2,3,4,4a,5,6,6a,6b,7,8,8a,9,11,13,13a,13b,14,15b-octadecahydro-1H-chryseno[1,2-f]indazole-4a-carboxylic acid]",2,1
"CC1(C)CC[C@]2(C(=O)O)CC[C@]3(C)C(=C(c4cccc(F)c4)CC4[C@@]5(C)Cc6c(n[nH]c6N)C(C)(C)[C@@H]5CC[C@]43C)[C@@H]2C1 (stereo partly drawn) [Compound 17, (4aS,6aS,6bR,8aR,13aR,15bS)-12-Amino-15-(3-fluorophenyl)-2,2,6a,6b,9,9,13a-heptamethyl-2,3,4,4a,5,6,6a,6b,7,8,8a,9,11,13,13a,13b,14,15b-octadecahydro-1H-chryseno[1,2-f]indazole-4a-carboxylic acid]",> 2,0.5
"CC1(C)CC[C@]2(C(=O)O)CC[C@]3(C)C(=C(c4cccc(CN)c4)CC4[C@@]5(C)Cc6c(n[nH]c6N)C(C)(C)C5CC[C@]43C)C2C1 (stereo partly drawn) [Compound 18, (4aS,6aS,6bR,13aR)-12-Amino-15-(3-(aminomethyl)phenyl)-2,2,6a,6b,9,9,13a-heptamethyl-2,3,4,4a,5,6,6a,6b,7,8,8a,9,11,13,13a,13b,14,15b-octadecahydro-1H-chryseno[1,2-f]indazole-4a-carboxylic acid]",1,0.5
"CC1(C)CC[C@]2(C(=O)O)CC[C@]3(C)C(=C(c4cccc(C(N)=O)c4)CC4[C@@]5(C)Cc6c(n[nH]c6N)C(C)(C)C5CC[C@]43C)C2C1 (stereo partly drawn) [Compound 19, (4aS,6aS,6bR,13aR)-12-Amino-15-(3-carbamoylphenyl)-2,2,6a,6b,9,9,13a-heptamethyl-2,3,4,4a,5,6,6a,6b,7,8,8a,9,11,13,13a,13b,14,15b-octadecahydro-1H-chryseno[1,2-f]indazole-4a-carboxylic acid]",1,1
"Cc1ccc(C2=C3C4CC(C)(C)CC[C@]4(C(=O)O)CC[C@@]3(C)[C@]3(C)CCC4C(C)(C)c5n[nH]c(N)c5C[C@]4(C)C3C2)cc1N (stereo partly drawn) [Compound 20, (4aS,6aS,6bR,13aR)-12-Amino-15-(3-amino-4-methylphenyl)-2,2,6a,6b,9,9,13a-heptamethyl-2,3,4,4a,5,6,6a,6b,7,8,8a,9,11,13,13a,13b,14,15b-octadecahydro-1H-chryseno[1,2-f]indazole-4a-carboxylic acid]",2,0.5
"CN(C)c1cccc(C2=C3C4CC(C)(C)CC[C@]4(C(=O)O)CC[C@@]3(C)[C@]3(C)CCC4C(C)(C)c5n[nH]c(N)c5C[C@]4(C)C3C2)c1 (stereo partly drawn) [Compound 21, (4aS,6aS,6bR,13aR)-12-Amino-15-(3-(dimethylamino)phenyl)-2,2,6a,6b,9,9,13a-heptamethyl-2,3,4,4a,5,6,6a,6b,7,8,8a,9,11,13,13a,13b,14,15b-octadecahydro-1H-chryseno[1,2-f]indazole-4a-carboxylic acid]",> 2,0.5
"CN(C)c1cc(C2=C3[C@@H]4CC(C)(C)CC[C@]4(C(=O)O)CC[C@@]3(C)[C@]3(C)CC[C@H]4C(C)(C)c5n[nH]c(N)c5C[C@]4(C)C3C2)ccn1 (stereo partly drawn) [Compound 22, (4aS,6aS,6bR,8aR,13aR,15bS)-12-Amino-15-(2-(dimethylamino)pyridin-4-yl)-2,2,6a,6b,9,9,13a-heptamethyl-2,3,4,4a,5,6,6a,6b,7,8,8a,9,11,13,13a,13b,14,15b-octadecahydro-1H-chryseno[1,2-f]indazole-4a-carboxylic acid]",> 2,1
"CC1(C)CC[C@]2(C(=O)O)CC[C@]3(C)C(=C(c4ccccc4N)CC4[C@@]5(C)Cc6c(n[nH]c6N)C(C)(C)C5CC[C@]43C)C2C1 (stereo partly drawn) [Compound 23, (4aS,6aS,6bR,13aR)-12-Amino-15-(2-aminophenyl)-2,2,6a,6b,9,9,13a-heptamethyl-2,3,4,4a,5,6,6a,6b,7,8,8a,9,11,13,13a,13b,14,15b-octadecahydro-1H-chryseno[1,2-f]indazole-4a-carboxylic acid]",2,1
"CC1(C)CC[C@]2(C(=O)O)CC[C@]3(C)C(=C(Cl)CC4[C@@]5(C)Cc6c(n[nH]c6N)C(C)(C)C5CC[C@]43C)C2C1 (stereo partly drawn) [Compound 24, (4aS,6aS,6bR,13aR)-12-Amino-15-chloro-2,2,6a,6b,9,9,13a-heptamethyl-2,3,4,4a,5,6,6a,6b,7,8,8a,9,11,13,13a,13b,14,15b-octadecahydro-1H-chryseno[1,2-f]indazole-4a-carboxylic acid]",1,0.5
"CC1(C)CC[C@]2(C(=O)O)CC[C@]3(C)C(=C(Br)CC4[C@@]5(C)Cc6c(n[nH]c6N)C(C)(C)[C@@H]5CC[C@]43C)[C@@H]2C1 (stereo partly drawn) [Compound 25, (4aS,6aS,6bR,8aR,13aR,15bR)-12-Amino-15-bromo-2,2,6a,6b,9,9,13a-heptamethyl-2,3,4,4a,5,6,6a,6b,7,8,8a,9,11,13,13a,13b,14,15b-octadecahydro-1H-chryseno[1,2-f]indazole-4a-carboxylic acid]",> 2,0.5
"CC1(C)CC[C@]2(C(=O)O)CC[C@]3(C)C(=C(c4ccoc4)CC4[C@@]5(C)Cc6c(n[nH]c6N)C(C)(C)[C@@H]5CC[C@]43C)[C@@H]2C1 (stereo partly drawn) [Compound 26, (4aS,6aS,6bR,8aR,13aR,15bS)-12-Amino-15-(furan-3-yl)-2,2,6a,6b,9,9,13a-heptamethyl-2,3,4,4a,5,6,6a,6b,7,8,8a,9,11,13,13a,13b,14,15b-octadecahydro-1H-chryseno[1,2-f]indazole-4a-carboxylic acid]",1,0.25
"CC1(C)CC[C@]2(C(=O)O)CC[C@]3(C)C(=C(c4cn[nH]c4)CC4[C@@]5(C)Cc6c(n[nH]c6N)C(C)(C)[C@@H]5CC[C@]43C)[C@@H]2C1 (stereo partly drawn) [Compound 27, (4aS,6aS,6bR,8aR,13aR,15bS)-12-Amino-2,2,6a,6b,9,9,13a-heptamethyl-15-(1H-pyrazol-4-yl)-2,3,4,4a,5,6,6a,6b,7,8,8a,9,11,13,13a,13b,14,15b-octadecahydro-1 H-chryseno[1,2-f]indazole-4a-carboxylic acid]",> 2,1
"Cn1cc(C2=C3[C@@H]4CC(C)(C)CC[C@]4(C(=O)O)CC[C@@]3(C)[C@]3(C)CC[C@H]4C(C)(C)c5n[nH]c(N)c5C[C@]4(C)C3C2)cn1 (stereo partly drawn) [Compound 28, (4aS,6aS,6bR,8aR,13aR,15bS)-12-Amino-2,2,6a,6b,9,9,13a-heptamethyl-15-(1-methyl-1H-pyrazol-4-yl)-2,3,4,4a,5,6,6a,6b,7,8,8a,9,11,13,13a,13b,14,15b-octadecahydro-1H-chryseno[1,2-f]indazole-4a-carboxylic acid]",2,1
